According to ChEMBL document CHEMBL1201862, “PubChem BioAssay data set” (2004):
Calls of active or inactive are those of the source.

Key:
[1] = target: T1, Apoptotic protease-activating factor 1 (Homo sapiens, UniProt O14727); type: functional
T1 sequence (O14727 whole entry): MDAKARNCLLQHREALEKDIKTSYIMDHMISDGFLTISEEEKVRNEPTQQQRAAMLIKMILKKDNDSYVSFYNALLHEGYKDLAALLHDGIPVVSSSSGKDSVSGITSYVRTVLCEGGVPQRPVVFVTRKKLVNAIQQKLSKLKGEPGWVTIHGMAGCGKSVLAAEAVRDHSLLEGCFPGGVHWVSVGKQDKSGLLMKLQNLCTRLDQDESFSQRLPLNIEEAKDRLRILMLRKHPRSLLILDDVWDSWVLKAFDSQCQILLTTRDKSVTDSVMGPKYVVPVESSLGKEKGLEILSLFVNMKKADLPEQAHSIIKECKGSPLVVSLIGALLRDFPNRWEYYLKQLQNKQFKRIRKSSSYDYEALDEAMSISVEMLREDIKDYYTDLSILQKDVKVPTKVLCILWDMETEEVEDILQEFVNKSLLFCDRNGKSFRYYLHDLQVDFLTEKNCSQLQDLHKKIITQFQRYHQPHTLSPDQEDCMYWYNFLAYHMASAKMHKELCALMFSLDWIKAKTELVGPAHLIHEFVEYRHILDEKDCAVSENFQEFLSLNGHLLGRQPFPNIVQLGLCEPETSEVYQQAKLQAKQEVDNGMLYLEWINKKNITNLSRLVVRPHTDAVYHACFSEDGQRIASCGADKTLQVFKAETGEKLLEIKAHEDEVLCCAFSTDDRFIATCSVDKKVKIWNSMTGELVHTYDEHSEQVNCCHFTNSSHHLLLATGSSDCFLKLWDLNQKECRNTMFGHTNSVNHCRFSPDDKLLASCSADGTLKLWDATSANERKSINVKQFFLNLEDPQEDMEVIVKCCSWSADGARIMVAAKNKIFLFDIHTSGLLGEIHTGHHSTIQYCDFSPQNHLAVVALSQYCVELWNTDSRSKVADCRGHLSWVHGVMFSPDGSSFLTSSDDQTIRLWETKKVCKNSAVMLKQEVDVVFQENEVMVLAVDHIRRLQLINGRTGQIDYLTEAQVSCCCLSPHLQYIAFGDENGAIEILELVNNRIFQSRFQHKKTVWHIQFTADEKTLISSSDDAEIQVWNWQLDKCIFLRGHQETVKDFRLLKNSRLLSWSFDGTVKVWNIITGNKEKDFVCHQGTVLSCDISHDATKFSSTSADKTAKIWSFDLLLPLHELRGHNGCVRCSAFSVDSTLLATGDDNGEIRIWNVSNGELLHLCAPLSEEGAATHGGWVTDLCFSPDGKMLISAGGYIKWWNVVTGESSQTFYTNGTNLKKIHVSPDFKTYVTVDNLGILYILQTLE

[2] = reduced cellular PGC1a acetyl-lysine signal – cell-based, cherry-picked samples, dose response (AID 720514); type: functional;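 note: potency may reflect raised or lowered acetylation signal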
BJ [3] = assay: growth inhibition of engineered Ras-driven BJ cells – cell-based, alamar blue fluorescence, cherrypicked samples, dose response (AID 2631); type: functional; conditions: Homo sapiens;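 note: confirmatory dose-response assay in RAS-dependent BJ fibroblasts engineered with TERT, LT and ST, with cytotoxicity read by fluorescence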
HEK293 = assay: EBV LMP1 TES2 canonical NF-kB signalling blockers – cell-based, HEK293, luciferase, cherry-pick, dose response (AID 588343); type: functional; conditions: Homo sapiens
BJ [4] = assay: BJ-TERT fibroblast viability loss – cell-based, RAS-independent, luminescence, dose response (AID 1933); type: functional; conditions: Homo sapiens
BJ [5] = assay: BJ-TERT-LT-ST fibroblast viability loss – cell-based, RAS-independent, luminescence, dose response (AID 1935); type: functional; conditions: Homo sapiens;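 note: BJ fibroblasts immortalized with TERT plus LT and ST oncogenes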
[6] = non-specific 3'UTR reporter inhibition in Clone20-Shn3RL – cell-based, Renilla luciferase, cherry-picked, counter-screen for Shn3 inhibitor project, dose response (AID 624133); type: functional
BJ [7] = assay: cells; type: functional, cell-based; conditions: Homo sapiens
[8] = target: Mothers against decapentaplegic homolog 3 (Homo sapiens, UniProt P84022); assay: inhibitors of SMAD-driven TGF-beta signaling – dose response (AID 715); type: functional
[9] = luciferase reporter signal suppression in cells – H4 neuroglioma cells, luminescence, dose response (AID 1990); type: functional, cell-based
[10] = alpha-synuclein stem-loop luciferase translation blockers – H4 neuroglioma cells, luminescence, confirmation (AID 1988); type: functional, cell-based
[11] = reduction of Shn3 3'UTR-driven luciferase in osteoblasts – cell-based, Clone20 osteoblasts, firefly luciferase, cherry-picked, dose response (AID 624132); type: functional;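 note: firefly luciferase luminescence from reporter carrying the Shn3 3'UTR in osteoblasts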
Vero = assay: mammalian cell viability reduction – secondary assay, cytotoxicity control for West Nile virus antiviral project, dose response (AID 1650); type: functional; conditions: Chlorocebus sabaeus
[12] = DRD fibroblast viability loss – cell-based, non-viral oncogenic, luminescence, dose response (AID 1934); type: functional; conditions: Homo sapiens
[13] = Luminescence Cell-Based Dose Response HTS to Identify Inhibitors of 5'UTR Stem-Loop Driven Prion Protein mRNA Translation in H4 Neuroglioblastoma Cells. [Related pubchem assays: 1827 (Project Summary), 1813 (Primary HTS)]; type: functional
[14] = loss of viability in HepG2 cells – cell-based, CellTiter-Glo, cherry-picked, cytotoxicity control for Shn3 inhibitor project, dose response (AID 624134); type: functional
[15] = target: Latent membrane protein 1 (Human herpesvirus 4 (strain B95-8), UniProt P03230); assay: LMP1 TES1 pathway selectivity over dsRED control – imaging, HEK293T, dual-color eGFP/dsRED, cherry-picks, selectivity assay for LMP1 NF-kB inhibitor project, dose response (AID 588398); type: functional, cell-based
Sequence of Latent membrane protein 1 (P03230 whole entry): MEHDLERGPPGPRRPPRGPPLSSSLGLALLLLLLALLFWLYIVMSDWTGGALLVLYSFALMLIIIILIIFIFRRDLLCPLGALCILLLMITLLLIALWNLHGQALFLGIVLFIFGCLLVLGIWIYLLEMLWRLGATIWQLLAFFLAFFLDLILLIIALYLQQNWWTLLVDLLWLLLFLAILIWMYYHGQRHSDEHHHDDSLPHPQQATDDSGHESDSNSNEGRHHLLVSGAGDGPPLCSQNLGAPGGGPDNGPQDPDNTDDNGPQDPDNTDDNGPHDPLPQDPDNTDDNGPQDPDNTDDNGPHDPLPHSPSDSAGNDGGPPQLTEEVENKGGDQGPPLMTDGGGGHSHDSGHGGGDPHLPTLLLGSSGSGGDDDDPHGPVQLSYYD

[16] = target: T2, Orexin/Hypocretin receptor type 1 (Homo sapiens, UniProt O43613); assay: Homogeneous Time Resolved Fluorescence (HTRF)-based cell-based high throughput dose response assay for antagonists of the orexin 1 receptor (OX1R; HCRTR1). [Related pubchem assays (depositor defined):AID434989, AID435008, AID463079, AID485270, AID492963, AID492964, AID492965, AID493232, AID504717, AID504718]; type: functional
T2 sequence (O43613 whole entry): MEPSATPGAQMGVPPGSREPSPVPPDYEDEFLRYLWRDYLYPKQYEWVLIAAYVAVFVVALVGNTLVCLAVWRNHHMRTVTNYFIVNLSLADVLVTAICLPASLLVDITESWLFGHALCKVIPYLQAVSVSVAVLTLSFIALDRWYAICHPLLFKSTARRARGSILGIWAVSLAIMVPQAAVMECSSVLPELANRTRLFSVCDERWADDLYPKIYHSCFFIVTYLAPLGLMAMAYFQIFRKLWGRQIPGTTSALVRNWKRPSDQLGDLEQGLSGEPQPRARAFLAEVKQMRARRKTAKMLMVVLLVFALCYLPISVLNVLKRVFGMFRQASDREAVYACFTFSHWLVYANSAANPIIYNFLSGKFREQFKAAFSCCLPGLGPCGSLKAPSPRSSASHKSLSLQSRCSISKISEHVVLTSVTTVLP

Orexin receptor type 2 [17] = target: T3, Orexin receptor type 2 (Homo sapiens, UniProt O43614); assay: Counterscreen assay for antagonists of the orexin 1 receptor (OX1R; HCRTR1): Fluorescence-based cell-based dose response assay for antagonists of the orexin 2 receptor (OX2R; HCRTR2), run by assay provider.; type: functional
T3 sequence (O43614 whole entry): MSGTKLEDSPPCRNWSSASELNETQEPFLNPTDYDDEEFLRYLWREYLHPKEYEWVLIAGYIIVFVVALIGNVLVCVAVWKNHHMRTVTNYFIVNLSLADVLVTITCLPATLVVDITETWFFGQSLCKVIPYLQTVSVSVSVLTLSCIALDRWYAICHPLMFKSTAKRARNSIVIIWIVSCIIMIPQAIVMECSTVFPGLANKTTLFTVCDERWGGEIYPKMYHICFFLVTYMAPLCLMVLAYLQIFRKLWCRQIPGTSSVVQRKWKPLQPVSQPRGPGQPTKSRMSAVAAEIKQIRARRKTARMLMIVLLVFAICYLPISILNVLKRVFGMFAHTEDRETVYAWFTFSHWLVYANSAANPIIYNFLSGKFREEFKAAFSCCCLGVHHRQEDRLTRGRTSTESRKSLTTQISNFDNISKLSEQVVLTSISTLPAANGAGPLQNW

[18] = target: T2, Orexin/Hypocretin receptor type 1; assay: Fluorescence-based cell-based high throughput dose response assay for antagonists of the orexin 1 receptor (OX1R; HCRTR1). [Related pubchem assays (depositor defined):AID434989, AID435008, AID463079, AID485270, AID492963, AID492964, AID492965, AID493232, AID504717, AID504718]; type: functional
Orexin receptor type 2 [19] = target: T3, Orexin receptor type 2; assay: Counterscreen assay for antagonists of the orexin 1 receptor (OX1R; HCRTR1): Homogeneous Time Resolved Fluorescence (HTRF)-based cell-based dose response assay for antagonists of the orexin 2 receptor (OX2R; HCRTR2), run by assay provider.; type: functional
CHO-K1 = assay: (§1) Counterscreen for antagonists of the orexin 1 receptor (OX1R; HCRTR1): Homogeneous time resolved fluorescence (HTRF)-based cell-based dose response assay to identify antagonists of the parental CHO-K1 cell line. [Related pubchem assays (depositor defined):AID434989, AID435008, AID463079, AID485270, AID492963, AID492964, AID492965, AID493232, AID504699, AID504701]; type: functional; conditions: Cricetulus griseus
[20] = as §1, with “Fluorescence-based” for “Homogeneous time resolved fluorescence (HTRF)-based”, “cell-based high throughput” for “cell-based”, “CHO” for “CHO-K1”; type: functional
[21] = Mcl1-dependent cancer cell viability – HMC-1-8 cells, luminescence, dry powder, selectivity assay for A1 inhibitor project, dose response (AID 504415); type: functional, cell-based; conditions: Homo sapiens
[22] = target: Vascular endothelial growth factor receptor 2 (Homo sapiens, UniProt P35968); type: functional
Sequence of Vascular endothelial growth factor receptor 2 (P35968 whole entry): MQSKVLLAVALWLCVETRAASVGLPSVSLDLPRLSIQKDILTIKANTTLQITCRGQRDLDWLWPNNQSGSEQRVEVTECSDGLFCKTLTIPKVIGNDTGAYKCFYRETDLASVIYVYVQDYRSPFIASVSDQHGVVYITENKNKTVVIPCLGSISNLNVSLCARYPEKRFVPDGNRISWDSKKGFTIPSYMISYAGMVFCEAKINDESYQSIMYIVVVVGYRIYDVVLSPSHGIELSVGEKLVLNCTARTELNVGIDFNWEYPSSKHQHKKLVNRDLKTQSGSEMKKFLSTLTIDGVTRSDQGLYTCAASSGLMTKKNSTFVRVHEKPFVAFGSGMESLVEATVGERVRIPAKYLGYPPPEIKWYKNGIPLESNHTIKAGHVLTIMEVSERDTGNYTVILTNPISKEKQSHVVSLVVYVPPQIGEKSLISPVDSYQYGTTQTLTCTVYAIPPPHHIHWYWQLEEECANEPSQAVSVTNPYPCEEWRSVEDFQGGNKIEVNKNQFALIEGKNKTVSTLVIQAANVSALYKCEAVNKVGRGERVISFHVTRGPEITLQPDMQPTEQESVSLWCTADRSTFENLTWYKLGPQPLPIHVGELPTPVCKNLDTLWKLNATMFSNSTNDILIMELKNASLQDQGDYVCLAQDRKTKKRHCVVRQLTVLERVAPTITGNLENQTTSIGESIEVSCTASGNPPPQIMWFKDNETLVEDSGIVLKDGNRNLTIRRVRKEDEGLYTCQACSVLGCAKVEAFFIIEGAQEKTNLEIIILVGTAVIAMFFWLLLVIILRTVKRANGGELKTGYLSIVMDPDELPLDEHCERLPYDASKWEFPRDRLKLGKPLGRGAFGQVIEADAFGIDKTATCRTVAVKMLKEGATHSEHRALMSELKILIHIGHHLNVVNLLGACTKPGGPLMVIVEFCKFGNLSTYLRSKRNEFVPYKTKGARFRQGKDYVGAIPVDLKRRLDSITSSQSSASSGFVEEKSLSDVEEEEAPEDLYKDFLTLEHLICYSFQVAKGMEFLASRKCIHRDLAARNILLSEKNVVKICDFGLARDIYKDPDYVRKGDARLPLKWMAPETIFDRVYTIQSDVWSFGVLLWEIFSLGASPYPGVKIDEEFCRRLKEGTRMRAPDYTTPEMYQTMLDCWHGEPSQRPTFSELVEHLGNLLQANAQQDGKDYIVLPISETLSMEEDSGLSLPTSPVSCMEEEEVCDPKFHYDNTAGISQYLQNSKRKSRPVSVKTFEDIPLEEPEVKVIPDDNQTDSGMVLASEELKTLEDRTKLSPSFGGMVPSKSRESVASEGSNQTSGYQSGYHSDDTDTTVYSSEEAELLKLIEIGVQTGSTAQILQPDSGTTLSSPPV

Aurora kinase B = Aurora kinase B (Homo sapiens, UniProt Q96GD4); type: functional
Sequence of Aurora kinase B (Q96GD4 whole entry): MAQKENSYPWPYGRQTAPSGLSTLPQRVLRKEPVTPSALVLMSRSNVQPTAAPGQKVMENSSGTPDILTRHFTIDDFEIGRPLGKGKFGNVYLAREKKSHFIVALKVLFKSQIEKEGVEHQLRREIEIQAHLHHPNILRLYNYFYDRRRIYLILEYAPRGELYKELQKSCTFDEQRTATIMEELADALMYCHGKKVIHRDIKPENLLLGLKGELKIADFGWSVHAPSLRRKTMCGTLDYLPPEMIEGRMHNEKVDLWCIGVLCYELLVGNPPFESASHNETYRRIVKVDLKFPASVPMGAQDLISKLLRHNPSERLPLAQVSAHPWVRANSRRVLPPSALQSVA

[23] = target: Sphingosine 1-phosphate receptor 5 (Homo sapiens, UniProt Q9H228); assay: activation of human S1P5 receptor – cell-based, fluorescence, set 2, counter-screen for S1P4 agonist project, late-stage follow-up (AID 504867); type: functional
Sequence of Sphingosine 1-phosphate receptor 5 (Q9H228 whole entry): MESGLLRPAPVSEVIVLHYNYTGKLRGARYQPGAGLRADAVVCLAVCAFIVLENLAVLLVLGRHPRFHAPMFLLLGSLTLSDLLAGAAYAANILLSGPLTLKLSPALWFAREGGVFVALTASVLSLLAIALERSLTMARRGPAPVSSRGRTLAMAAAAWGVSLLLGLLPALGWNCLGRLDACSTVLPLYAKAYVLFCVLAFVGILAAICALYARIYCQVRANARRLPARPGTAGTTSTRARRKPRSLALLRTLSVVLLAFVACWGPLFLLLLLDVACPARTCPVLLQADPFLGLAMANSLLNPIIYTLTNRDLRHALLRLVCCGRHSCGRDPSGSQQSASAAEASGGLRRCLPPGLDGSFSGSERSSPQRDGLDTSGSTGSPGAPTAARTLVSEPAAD

[24] = target: Sphingosine 1-phosphate receptor 3 (Homo sapiens, UniProt Q99500); assay: Late-stage fluorescence-based dose-response cell-based counterscreen assay to identify agonists of the Sphingosine 1-Phosphate Receptor 4 (S1P4): Sphingosine 1-Phosphate Receptor 3 (S1P3) agonist assay Set 2.; type: functional
Sequence of Sphingosine 1-phosphate receptor 3 (Q99500 whole entry): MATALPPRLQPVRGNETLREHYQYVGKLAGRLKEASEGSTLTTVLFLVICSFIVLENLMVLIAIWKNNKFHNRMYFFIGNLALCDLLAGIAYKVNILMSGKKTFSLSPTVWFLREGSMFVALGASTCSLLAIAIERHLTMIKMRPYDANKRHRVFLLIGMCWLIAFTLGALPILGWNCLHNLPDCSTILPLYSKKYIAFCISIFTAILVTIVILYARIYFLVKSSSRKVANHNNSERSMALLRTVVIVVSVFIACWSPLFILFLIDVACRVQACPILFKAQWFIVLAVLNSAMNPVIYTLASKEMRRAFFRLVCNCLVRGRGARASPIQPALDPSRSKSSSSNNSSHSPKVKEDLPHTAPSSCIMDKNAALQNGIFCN

[25] = target: Sphingosine 1-phosphate receptor 2 (Homo sapiens, UniProt O95136); assay: activation of human S1P2 receptor – cell-based, fluorescence, set 2, counter-screen for S1P4 agonist project, late-stage follow-up (AID 504873); type: functional
Sequence of Sphingosine 1-phosphate receptor 2 (O95136 whole entry): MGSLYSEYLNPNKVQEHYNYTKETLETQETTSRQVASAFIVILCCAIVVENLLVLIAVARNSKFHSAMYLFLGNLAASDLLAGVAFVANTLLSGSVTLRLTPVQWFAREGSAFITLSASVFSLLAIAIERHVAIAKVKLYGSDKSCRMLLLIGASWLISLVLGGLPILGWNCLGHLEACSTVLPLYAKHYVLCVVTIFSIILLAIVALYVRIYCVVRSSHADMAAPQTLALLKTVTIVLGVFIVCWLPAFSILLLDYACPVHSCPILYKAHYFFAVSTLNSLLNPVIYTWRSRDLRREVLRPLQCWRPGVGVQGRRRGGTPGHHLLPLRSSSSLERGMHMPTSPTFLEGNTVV

[26] = target: Sphingosine 1-phosphate receptor 1 (Homo sapiens, UniProt P21453); assay: Late-stage fluorescence-based dose-response cell-based counterscreen assay to identify agonists of the Sphingosine 1-Phosphate Receptor 4 (S1P4): Sphingosine 1-Phosphate Receptor 1 (S1P1) agonist assay Set 2.; type: functional
Sequence of Sphingosine 1-phosphate receptor 1 (P21453 whole entry): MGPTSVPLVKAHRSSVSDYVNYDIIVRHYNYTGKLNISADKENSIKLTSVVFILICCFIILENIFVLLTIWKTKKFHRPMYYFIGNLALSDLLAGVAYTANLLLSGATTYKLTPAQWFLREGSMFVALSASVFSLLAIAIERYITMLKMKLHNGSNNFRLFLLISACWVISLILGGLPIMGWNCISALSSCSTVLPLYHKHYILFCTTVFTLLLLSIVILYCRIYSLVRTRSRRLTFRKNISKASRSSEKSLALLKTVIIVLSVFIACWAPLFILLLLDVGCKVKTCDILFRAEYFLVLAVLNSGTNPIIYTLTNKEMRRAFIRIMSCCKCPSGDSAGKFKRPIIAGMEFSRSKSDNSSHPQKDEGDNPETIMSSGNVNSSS

[27] = A cell-based HTS for delayed death inhibitors of the malarial parasite plastid Measured in Microorganism System Using Plate Reader - 2126-01_Inhibitor_Dose_DryPowder_Activity.; type: functional, organism-based
[28] = A cell-based HTS for delayed death inhibitors of the malarial parasite plastid Measured in Microorganism System Using Plate Reader - 2126-02_Inhibitor_Dose_DryPowder_Activity.; type: functional, organism-based
[29] = target: Protein disulfide-isomerase (Homo sapiens, UniProt P07237); assay: inhibition of PDI-driven insulin aggregation – biochemical, turbidity, absorbance, cherry-picked samples, dose response (AID 602350); type: functional
Sequence of Protein disulfide-isomerase (P07237 whole entry): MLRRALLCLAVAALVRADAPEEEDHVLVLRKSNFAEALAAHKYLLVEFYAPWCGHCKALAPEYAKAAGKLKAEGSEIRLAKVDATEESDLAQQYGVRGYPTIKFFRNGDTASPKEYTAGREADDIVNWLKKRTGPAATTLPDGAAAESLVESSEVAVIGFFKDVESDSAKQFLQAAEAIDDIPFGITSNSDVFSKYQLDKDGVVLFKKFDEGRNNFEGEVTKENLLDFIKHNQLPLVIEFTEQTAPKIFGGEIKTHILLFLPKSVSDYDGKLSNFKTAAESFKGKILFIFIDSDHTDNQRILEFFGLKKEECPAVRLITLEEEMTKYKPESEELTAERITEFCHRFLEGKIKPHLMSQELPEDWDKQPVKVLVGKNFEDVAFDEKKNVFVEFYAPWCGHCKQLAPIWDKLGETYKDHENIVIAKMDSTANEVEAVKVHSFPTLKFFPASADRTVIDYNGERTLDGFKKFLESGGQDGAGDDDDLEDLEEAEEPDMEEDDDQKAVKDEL

CCOC(=O)c1c2c(n(C)c1C)C(=O)C(=O)c1ccc(Br)cc1-2
IC50 [1]: 0.797 µM (active) | AC50 [2]: 4.34 µM (active) | EC50 (BJ [3]): 0.52 µM (active) | AC50 (HEK293): 2.51 µM (active) | EC50 (BJ [4]): 4.88 µM (active) | EC50 (BJ [5]): 5.56 µM (inconclusive) | AC50 [6]: 1.6 µM (active) | EC50 (BJ [7]): 8.06 µM (inconclusive) | IC50 [8]: 10.4 µM (active) | EC50 [9]: 6.23 µM (active) | EC50 [10]: 3.58 µM (active) | AC50 [11]: 1.01 µM (active) | CC50 (Vero): 6.53 µM (active) | EC50 [12]: 5.41 µM (active) | EC50 [13]: 8.25 µM (active) | AC50 [14]: 3.95 µM (active) | AC50 [15]: 41.1 µM (active)

CC(=O)Nc1cccc(OCC(=O)NC(C)c2ccc3ccccc3c2)c1 (stereo not drawn)
IC50 [16]: 0.623 µM (active) | IC50 (Orexin receptor type 2 [17]): 30 µM (inactive) | IC50 [18]: 9.01 µM (active) | IC50 (Orexin receptor type 2 [19]): > 50 µM (inactive) | IC50 (CHO-K1): > 66.2 µM (inactive) | IC50 [20]: > 49.7 µM (inactive)

O=c1oc2ccccc2c(Nc2cc(Cl)cc(Cl)c2)c1[N+](=O)[O-]
AC50 [21]: 31.2 µM (active)

COc1cc(Nc2ncnc(Nc3cc[nH]n3)n2)cc(OC)c1OC
Ki [22]: 3.98 µM (active) | Ki (Aurora kinase B): 0.316 µM (active)

C/N=C1/S/C(=C/c2cc(C)n(Cc3ccccc3)c2C)C(=O)N1C
EC50 [23]: 0.144 µM (active) | EC50 [24]: > 25 µM (inactive) | EC50 [25]: 3.65 µM (active) | EC50 [26]: 0.72 µM (active)

C[C@@H]1CN([C@@H](C)CO)C(=O)c2cc(NC(=O)Nc3ccccc3)ccc2O[C@@H](C)CCCCO[C@H]1CN(C)S(=O)(=O)c1ccccc1F
AC50 [27]: 0.924 µM (active) | AC50 [28]: 0.641 µM (active)

Cc1noc(C)c1S(=O)(=O)Nc1ccc2c(c1)CC(=O)N([C@@H](C)CO)C[C@H](C)[C@H](CN(C)S(=O)(=O)c1ccc(F)cc1)O2
AC50 [29]: 19.5 µM (active)
